Experiments:
[1] = Stability in liver microsomes (human); type: in vitro ADME; conditions: h (human liver microsomes), 0.5 mg/mL, read-out: MMS Clint
Method: (§1) The purpose of this study was to evaluate the phase I metabolic stability of the assay sample in liver microsomes from CD-1 mice, Sprague-Dawley (SD) rats, beagle dogs, cynomolgus monkeys, and human.
(§2) The animal and human liver microsomes used in this assay system were purchased from Xenotech, Corning, or other qualified suppliers.
(§3) Preparation of buffer: 73.21 g of potassium phosphate dibasic trihydrate and 10.78 g of potassium dihydrogen phosphate were dissolved in 4000 mL of ultrapure water. The pH of the solution was adjusted to the range of 7.40 ± 0.10 using 10.0% phosphoric acid or 1.00 M potassium hydroxide. Its final concentration was 100 mM.
(§4) Preparation of working solutions: An assay sample powder was prepared into a 10.0 mM stock solution with DMSO, and then further diluted with a suitable organic solvent. The control compounds testosterone, diclofenac, and propafenone were prepared into 10.0 mM stock solutions using DMSO, and then further diluted with a suitable organic solvent.
(§5) Preparation of liver microsome solution: Microsomes of various species were diluted with 100 mM potassium phosphate buffer to a working solution of 0.56 mg/mL. The final concentration of microsomes in the reaction system was 0.500 mg/mL. Detailed preparation procedures were described in the experimental records.
(§6) Preparation of reduced nicotinamide adenine dinucleotide phosphate (NADPH) solution: An appropriate amount of reduced nicotinamide adenine dinucleotide phosphate was dissolved in magnesium chloride solution, and the mixture was shaken to mix well. The final concentrations in the reaction system were 1.00 mM NADPH and 1.00 mM magnesium chloride, respectively. Detailed preparation procedures were described in the experimental records.
(§7) Preparation of stop solution: The stop solution was prepared using acetonitrile containing internal standards (tolbutamide and labetalol). The prepared stop solution was stored at 2.0 to 8.0 °C in a refrigerator. Detailed preparation procedures were described in the experimental records. […]

[2] = Kinetic solubility in 50 mM phosphate buffer, LC-UV; type: physicochemical; conditions: room temperature, 24 hours
Method: The purpose of this assay was to determine the kinetic solubility of the compounds after incubation at room temperature in a 50 mM phosphate buffer solution with a pH of 2.0, 6.5, and 7.4 for 24 hours using a direct ultraviolet method.
10 µL of DMSO stock solutions of a test compound and control compound were added to a 96-well plate. 490 µL of the test medium was added to the 96-well plate, respectively. The plate was sealed, and vortexed for 2 minutes. The incubation concentration of a sample was 200 µM, wherein, DMSO accounted for 2%. The 96-well plate was placed on a shaker, and incubated at room temperature and 800 rpm for 24 hours to reach dissolution equilibrium. After the incubation, the sample was put into a centrifuge, and centrifuged at 25 °C and 4000 rpm for 10 minutes. The supernatant from the centrifuged sample was transferred to a filter plate, centrifuged at 4000 rpm for 5 minutes, and filtered to give filtrate. The concentration of the filtrate was analyzed using linear quantitative analysis with LC-UV (the sample was diluted as needed).
Data of the assay were acquired and processed using Empower software. Linear regression analysis was performed by plotting the relationship between the peak area and their concentrations in µM.

[3] = Stability in liver microsomes (mouse); type: in vitro ADME, CD-1 mice; conditions: m (CD-1 mouse liver microsomes), 0.5 mg/mL, read-out: MMS Clint
Method: as §1, §2, §3, §4, §5, §6, §7

For `CC(C)(C)CC(=O)Nc1nc2c(F)cc(C#N)cn2c1C12CC(C1)C2` [Compound 5], which CLint scaled at 1 µM [1] is on record?
Its CLint scaled at 1 µM is less than 8.6 mL/min/kg.

And the KSY ([2]; pH 2.0, 50 mM phosphate buffer)?
Its KSY is 4.46 µg/mL.

And the KSY ([2]; pH 6.5, 50 mM phosphate buffer)?
Its KSY is 4.57 µg/mL.

What about the KSY ([2]; pH 7.4, 50 mM phosphate buffer) of the same compound?
The KSY was 4.79 µg/mL.

What about the CLint scaled at 1 µM [3] of the same compound?
The CLint scaled at 1 µM was less than 38 mL/min/kg.

Which results are given for `CC(C)(C)CC(=O)Nc1nc2c(C(F)(F)F)cc(C#N)cn2c1C12CC(C1)C2` [Compound 6]?
KSY ([2]; pH 2.0, 50 mM phosphate buffer): 21.7 µg/mL; KSY ([2]; pH 6.5, 50 mM phosphate buffer): 20.9 µg/mL; KSY ([2]; pH 7.4, 50 mM phosphate buffer): 21.4 µg/mL

Which CLint scaled at 1 µM [1] does the source give for `CC(C)(C)CC(=O)Nc1nc2c(F)cc(C#N)cn2c1C1=CCCC1` [Compound 3] here?
Its CLint scaled at 1 µM is 19 mL/min/kg.

And the KSY ([2]; pH 2.0, 50 mM phosphate buffer)?
Its KSY is 3.78 µg/mL.

What about the KSY ([2]; pH 6.5, 50 mM phosphate buffer) of the same compound?
Its KSY is 3.68 µg/mL.

What about the KSY ([2]; pH 7.4, 50 mM phosphate buffer) of the same compound?
The KSY was 4.43 µg/mL.

And the CLint scaled at 1 µM [3]?
Its CLint scaled at 1 µM is 103 mL/min/kg.

For `CC(C)(C)CC(=O)Nc1nc2c(F)cc(C#N)cn2c1-c1ccc(OC(F)(F)F)cc1` [Compound 1], which CLint scaled at 1 µM [1] is on record?
The CLint scaled at 1 µM was 30 mL/min/kg.

And the CLint scaled at 1 µM [3]?
Its CLint scaled at 1 µM is 220 mL/min/kg.
